The values below come from patent US20240065988A1, “COMBINED USE OF KETAMINE AND RETIGABINE (EZOGABINE) FOR THE TREATMENT OF PSYCHIATRIC DISORDERS” (Yeda Research and Development Co. Ltd., priority 2021, published 2024).

In assay [1] the test system is primary hippocampal neurons. Nature of the assay: qPCR mRNA expression in primary hippocampal neurons treated with ketamine or HNKet. The class given is cell-based, mouse. The following applies: 10 μM. Here is the method: Primary hippocampal neurons were generated from E16.5 embryos using a standard primary neuron cell culture protocol previously described [K. G. Schraut et al., Eur JNeurosci (2021) 53: 390-401]. Briefly, dissected hippocampi were harvested in ice-cold dissection medium (HBSS, 7 mM HEPES, 2 mM L-glutamine, 500 U/ml penicillin-streptomycin, all Thermo Fisher Scientific). The tissue was incubated for 10 minutes in 0.25% Trypsin-EDTA with 8 mM HEPES (Thermo Fisher Scientific) in a water bath at 37° C. Tissue was washed three times with serum medium (DMEM, 10% FBS, Thermo Fisher Scientific). The cells were dissociated by titration using glass Pasteur pipets 10 in serum medium and filtered with a 70 tm cell strainer (Corning). Cell culture plates were coated overnight with 0.05 mg/ml poly-D-lysine mol wt 70,000-150,000 (Sigma Aldrich) in 0.15 M borate buffer (pH=8.5). Cells were seeded in 24-well plates at a density of 5×10^4 cells in 1 ml growth medium (Neurobasal A medium, 1 x B27 supplement, 0.25×GlutaMAX, all Thermo Fisher Scientific) per well. All cultures were kept in a humidified incubator at 37° C. and 5% CO2. Growth medium was renewed after 7 days of culture. For all experiments, mature twenty-one-day old primary neuronal cultures were used.
Primary hippocampal neurons were generated from E16.5 embryos and cultured for 21 days, as described above (see Primary Cell Culture). For experiment 1 (FIGS. 3A-K), neurons were treated with a saline solution, (R,S)-ketamine (10 μM) (Ketaset, Zoetis, Germany) or (2R,6R)-HNKet (10 μM) (Sigma, Cat #SML1873-25MG) for 0, 2, 12, 24 or 48 hours and compared to untreated controls. For experiment 2 (FIGS. 6A-D), neurons were stimulated with either a saline solution, (2R,6R)-HNKet (10 μM), or a combination of (2R,6R)-HNKet (10 μM) plus nifedipine (10 μM) (Tocris Bioscience, Cat #1075), W-7 hydrochloride (10 μM) (Tocris, Cat #0369), or cyclosporine-A (1 μM) (Tocris, Cat #1101) for 30 minutes, 1, 2, or 6 hours, and compared to untreated controls.
Ketamine treatment regulates Kcnq2 in primary hippocampal neurons To corroborate the previous findings in glutamatergic neurons, it was next examined whether treatment of primary hippocampal neurons with either (R,S)-ketamine or its active metabolite, (2R,6R)-hydroxynorketamine (HNKet), could modify the mRNA expression of the 8 genes tested earlier in glutamatergic neurons. Mouse primary hippocampal neurons are mostly made up of glutamatergic neurons and therefore make a very good model system to further validate the previous in vivo findings. […]

Assay [2] has as its system CD-1 mice injected with shRNA-Kcnq2 or shRNA-control AAV. Nature of the assay: Forced swim test after AAV shRNA knockdown of Kcnq2 in the vHipp. The class given is in vivo, mouse.
Another assay relates to CSDS mice (Nex-Cre-Ai9). Nature of the assay: Forced swim test in chronic social defeat stress (CSDS) mice. The following applies: ketamine 10 mg/kg i.p. vs saline, two days after treatment.

On to `CNC1(c2ccccc2Cl)CCCCC1=O` (racemic) [ketamine, (R,S)-ketamine], for which the “mRNA expression of Hspa8, Snap25, Hsp90ab1, Ndufa4, Ilf2, E2f1 and Kcnq2” value in assay [1] (2, 12, 24 or 48 hours) was “significant changes”. For the same molecule, the “Kcnq2 mRNA expression” value in assay [1] (2, 12, 24 or 48 hours vs untreated and saline controls) is recorded as “significant upregulation at all time points tested”. In addition, the “antidepressant-like effects of ketamine in the FST” value in assay [2] (mice expressing the shRNA-Kcnq2 virus, ketamine 10 mg/kg BW) is listed as “no longer detected”. Besides, the “immobility time during the FST” value in assay [2] (shRNA-scramble control mice, ketamine 10 mg/kg BW vs saline) was “significant decrease in immobility time”; with CSDS mice (Nex-Cre-Ai9), “significant decrease in immobility time”.
